Design in all cases: species or system Aves
A short description of experiment [1]: Inhibition of Avian AIR carboxylase in presence of 0.5 nM of the compound.
Experiment [2] in a line: Kobs versus inhibitory concentration.
Experiment [3] can be described thus: Changes in free energy concentration.

Here are results for one compound from ChEMBL document CHEMBL1126890, “A tight binding inhibitor of 5-aminoimidazole ribonucleotide carboxylase” (J Med Chem, 1993).

For `Nc1c([N+](=O)[O-])ncn1[C@@H]1O[C@H](COP(=O)(O)O)[C@@H](O)[C@H]1O`, the Ki (commonly a measure of affinity in units of concentration, obtained from inhibition or displacement) was 1.3 nM in experiment [1], 1.4 nM in experiment [2] and 1.6 nM in experiment [3].
